# From patent US20030028927A1 (priority 2001, published 2003)
# Assays:
# Format in all cases: in vivo, Arabidopsis thaliana
# [1] = test system: Cvi/Ler RI line seedlings; assay: RI line specific phenotypes on GdA
# Excerpt: To test this, recombinant inbred lines (RI lines) were examined, which originated from crosses between two ecotypes followed by single-seed self-propagation for eight generations. Each line should be homozygous at almost all loci, with different lines representing various mosaics of the parental genomes (Alonso-Blanco et al., 1998). If a decrease in Hsp90 function uncovers novel phenotypes due to natural variation, GdA-induced phenotypes should vary between RI lines but tend to be shared within them. Here, work with 50 RI lines derived from a cross between Cvi and Ler (Cvi/Ler, CS22477 base set, ABRC) is presented. These lines are characterized by high rates of recombination and low segregation distortion (Alonso-Blanco et al., 1998). Col/Ler RI lines behaved similarly, although phenotypic variation was not quite so dramatic.
# (§1) Ecotypes were crossed several times in independent experiments to produce F1 seeds. […] Plates were unwrapped after 48 hrs at 22° C., were incubated in continuous light at ˜150 μmol m^−2 sec^−1 (unless otherwise indicated), and were analyzed after eight and ten days of growth.
# To minimize variation and provide more objective comparisons, two RI lines were plated together on each square plate. All sets were cold treated for 48 hrs. Foil-wrapped plates incubated at 22° C. were treated as described above. Since development was more rapid at 27° C., these plates were unwrapped after 24 hrs instead of 48 hrs. Phenotypes were scored at eight and ten days.
# [2] = test system: Arabidopsis seedlings (ecotypes Col, Ler, Shadara); assay: Morphological phenotypes of Arabidopsis ecotype seedlings grown on Hsp90 inhibitor
# Protocol: In most cases phenotypes were distinct and were not accompanied by a general failure to thrive. […] Next, several Arabidopsis ecotypes were tested from diverse geographic locations and environments, including Cape Verde Island ([…], Tsu-1, Mr-0, and Ts-1. […] Particular phenotypes were not restricted to particular ecotypes, but the frequencies at which they appeared varied reproducibly between them. […] 30% of seedlings had these phenotypes. […] also frequently produced distorted rosettes with juxtaposed cotyledons. Dwarfed plants with cotyledons that accumulated purple pigment were most common in Col. Curled hypocotyls were most frequent in Ler. Ecotypes were crossed several times in independent experiments to produce F1 seeds. […] Plates were unwrapped after 48 hrs at 22° C., were incubated in continuous light at 150 μmol m^-2 sec^-1 (unless otherwise indicated), and were analyzed after eight and ten days of growth.
# [3] = test system: F1 seedlings (Col x Ler and Ler x Cvi); assay: Phenotypes of F1 progeny of accession crosses with GdA; conditions: Col x Ler and Ler x Cvi F1, in the presence of GdA
# Excerpt: To investigate the interplay of genetic variation, stochastic processes, and their dependence on the Hsp90 buffering system, Applicants tested crosses of different, nearly homozygous accessions (Col x Ler and Ler x Cvi) that are believed to have been recentlyevolving independently. If stochastic events contribute to phenotypes predisposed by genotype, then mixing genomes might disrupt developmental stability in F1 progeny. Further, if Hsp90 buffers developmental stability against such events, reducing Hsp90 function in nearly identical F1 progeny should increase phenotypic variance. […] Phenotypes were stronger and more frequent in seedlings with a maternal contribution from Ler (˜20 to 25% affected seedlings) than with maternal contributions from Col or Cvi (˜10 to 15%).
# as §1
# [4] = RI line 082, S-shaped rosette with vertically oriented leaf blade of cotyledons
# [5] = RI line 104, purple pigmentation of cotyledons and true leaves
# [6] = RI line 113, curled hypocotyl with root partially extended into air
# [7] = RI line 119, deformed, radially-symmetric and missing true leaves
# [8] = RI line 120, radially-symmetric and missing true leaves
# [9] = RI line 122, distorted rosette, juxtaposed or fused cotyledons
smiles,measurement,setting,value
"COC1=C2C[C@@H](C)C[C@H](OC)[C@H](O)[C@@H](C)/C=C(\C)[C@H](OC(N)=O)[C@@H](OC)/C=C\C=C(/C)C(=O)NC(=CC1=O)C2=O [GdA, geldanamycin]",Frequency with 1 μM GdA at 22° C.,[1]; [4],32%
same,Frequency with 1 μM GdA at 22° C. (count),[1]; [4],64/201
same,Frequency with 1 μM GdA at 22° C.,[1]; [5],34%
same,Frequency with 1 μM GdA at 22° C. (count),[1]; [5],29/84
same,Frequency with 1 μM GdA at 22° C.,"[1]; RI line 104, root morphology",52%
same,Frequency with 1 μM GdA at 22° C. (count),"[1]; RI line 104, root morphology",44/84
same,Frequency with 1 μM GdA at 22° C.,[1]; [6],32%
same,Frequency with 1 μM GdA at 22° C. (count),[1]; [6],9/28
same,Frequency with 1 μM GdA at 22° C.,[1]; [7],68%
same,Frequency with 1 μM GdA at 22° C. (count),[1]; [7],19/28
same,Frequency with 1 μM GdA at 22° C.,[1]; [8],64%
same,Frequency with 1 μM GdA at 22° C. (count),[1]; [8],18/29
same,Frequency with 1 μM GdA at 22° C.,[1]; [9],28%
same,Frequency with 1 μM GdA at 22° C. (count),[1]; [9],44/158
same,Frequency with 1 μM GdA at 22° C.,"[1]; RI line 134, bent hypocotyls",88%
same,Frequency with 1 μM GdA at 22° C. (count),"[1]; RI line 134, bent hypocotyls",49/56
same,Frequency with 1 μM GdA at 22° C.,"[1]; RI line 159, root morphology",50%
same,Frequency with 1 μM GdA at 22° C. (count),"[1]; RI line 159, root morphology",53/105
same,decrease of growth rate,[1]; relative to plants grown without GdA at 22° C.,0.5 to 1 days
same,seedlings showing strong morphological abnormalities,"[2]; 1.0 μM GdA, Col and Ler",5-8%
same,phenotype frequency in selfed progeny,"[2]; progeny of selfed Shadara plants with subtle true leaf abnormalities, with GdA",75%
same,frequency of abnormal phenotypes in F1 progeny,[3],up to 25%
